For assay [1], the system named is cultured immature corn embryos transformed with SEQ ID NO: 6. The experiment in a line: Selection of beamed corn embryos on glyphosate-containing medium. In kind it is cell-based, Zea mays. The following applies: 540 mg/l glyphosate, DN62540RR medium, aerosol beam transformation with SEQ ID NO: 6. How it is done:
The Cla I and Eco RV fragment (SEQ ID NO: 6) of HCEM was introduced into cultured immature corn embryos using an aerosol beam injector according to U.S. patent application Ser. No. 09/450,226. The Cia I-Eco RV fragment comprised the glyphosate-resistant EPSPS coding sequence.
Selection was carried out as follows: the beamed embryos were allowed to remain on DN62A0S20G medium for 5 days.
The beamed embryos were then transferred to DN62A100RR—a medium containing 100 mg/l glyphosate. After two 14-day passages on DN62A100RR, actively growing tissue is transferred to DN62A300RR medium which contains 300 mg/l (Table 3). After two 14-day passages on this medium, tissue was finally transferred to DN62540RR medium which contains 540 mg/i glyphosate (Table 3). […] Regeneration is carried out as described in U.S. patent application Ser. No. 09/450,226.

Assay [2] has as its system co-cultivated corn embryos. The experiment in a line: Selection of Agrobacterium co-cultivated corn embryos on glyphosate-containing medium. In kind it is cell-based, Zea mays. Conditions: 540 mg/l glyphosate, DN62540RR medium, Agrobacterium-mediated DNA delivery. How it is done:
Transformation can also be accomplished using Agrobacterium-mediated DNA delivery. In this case, the transformation and regeneration are performed according to the methods as described in U.S. patent application Ser. No. 09/203,679, which is herein incorporated by reference. Briefly, after culturing on DN62A0S20GLC (Table 2) for five days, co-cultivated embryos are transferred to DN62ALC180RR medium which contains 180 mg/l glyphosate (Table 3). After two 14-day passages on this medium, actively growing tissue is transferred to DN62540RR medium containing 540 mg/l glyphosate (Table 3). […] Regeneration is carried out as described in U.S. Ser. No. 09/203,679.

The subject of assay [3] is regenerated soybean plants transformed with mutant epm1 and/or mutant epm2. As to the kind of experiment: Glyphosate spray of regenerated transgenic soybean plants and progenies. In kind it is in vivo. The following applies: sprayed at commercial rates, greenhouse. An excerpt: The Bam HI/Sac II fragment (SEQ ID NO: 2) of epm1 vector and the Eco RI fragment (SEQ ID NO: 4) of epm2 vector were used to transform soybean embryogenic callus using an aerosol beam injector as described in U.S. patent application Ser. No. 09/450,226, which is incorporated herein by reference. These fragments comprised mutant epm1 and mutant epm2 which encode (putative) glyphosate-resistant EPSPSs. These fragments were used either alone or, preferably, together.
The transformed tissue is selected for glyphosate resistance using the method described below. First, the beamed embryogenic callus is maintained for one month on B1-30 3Co5My0.01PA medium.
The tissue is then transferred to the same medium but now containing 300 mg/l glyphosate. After a number of passages (up to 5 passages, each passage may last for about a month) on this latter medium, resistant clonal material may be identified. After an optional further few passages on B1-30 3Co5My0.01PA medium but containing 500 mg/l glyphosate, the growing tissue is transferred to a regeneration media as described in U.S. Pat. Ser. No. 09/450,226. Regenerated plants are transferred to pots in a greenhouse. […] Progenies are expected to 3:1 for glyphosate resistance as would be expected for Mendelian inheritance of a transgene.

The structures appear in SMILES notation.

`O=C(O)CNCP(=O)(O)O` [glyphosate, N-phosphonomethylglycine]: the “growth of stably transformed tissue on glyphosate medium” value in assay [1] and in assay [2] was “continued growth” throughout. Moreover, the “resistance of regenerated plants and progenies to glyphosate spray” value in assay [3] is on record as “complete resistance”.

For the origin of these results see patent publication US7626077B2, “Glyphosate-resistant plants” (Mertec LLC, priority 2002, dated 2009).
